Results: patent US20230358737A1, “CONTINUOUSLY CHEMICALLY ENHANCED APTAMER SENSORS” (University of Cincinnati, priority 2020, published 2023)
≈ marks a conversion by molar mass, not a printed value.

How the values were obtained:
[1] = equivalent diffusion distance through oil-membrane compared to water (calculation); type: physicochemical
Source text: For this reason, the present inventors chose to use 11 μm thick polycarbonate track-etch membranes instead of thicker hydrophobic membranes such as conventional porous Teflon films (z=10s to 100s of μm). The oil wicks into and remains in the track-etch membrane pores because of its lower interfacial surface tension with the polycarbonate than the water has with polycarbonate. […] The diffusion coefficient of an analyte is dependent on the viscosity of the fluid it is diffusing through. Therefore, an important design element for the oil is to have a low viscosity (diffusion coefficient is inversely proportional to the viscosity of the oil [Walter, A.; Gutknecht, J. Permeability of Small Nonelectrolytes through Lipid Bilayer Membranes. J. Membr. Biol. 1986, 90 (3), 207-217. https://doi.org/10.1007/BF01870127]. Consider an informative example related to the materials used here. The optimal track-etch membranes for this work (see Table 1-below) have an 11 μm membrane thickness and 15.7% porosity, which is equivalent to the analyte having to diffuse through a uniform 70 μm of oil (11 μm/0.157). Now consider castor oil, with a viscosity about 730 times greater than that of water (see Table 2-below). An 11 μm thick castor oil membrane would then be equivalent to a 51,170 μm thick water diffusion distance (11 μum/0.157*730). Alternatively, using a low viscosity oil, such as 1-decanol, the 11 μm thick oil-membrane would have an equivalent thickness of only 945 μm diffusion distance through water (see Table 2).

[2] = cited from earlier work
[3] = cited from earlier work; for Viscosity at 25° C.: Table 3
[4] = cited from earlier work; for LogK (octanol over water): Table 3, ratio of concentration of the oil in octanol and water at equilibrium
[5] = cited from earlier work; remark: listed apart in the source

Equivalent water thickness ([1]; pore size 0.1 μm, open area 3.1%, thickness 6 μm)	Equivalent water thickness ([1]; pore size 0.2 μm, open area 9.4%, thickness 10 μm)	Equivalent water thickness ([1]; pore size 0.4 μm, open area 12.6%, thickness 10 μm)	Equivalent water thickness ([1]; pore size 1.0 μm, open area 15.7%, thickness 11 μm)	Equivalent water thickness ([1]; pore size 3.0 μm, open area 14.1%, thickness 9 μm)	SMILES	Vapor pressure at 25° C. [2]	Viscosity ([3]; Table 2)	Viscosity at 25° C. [3]	Log P ([4]; Table 2)	LogK (octanol over water) [4]	Solubility in water [5]
26,10 μm	1,434 μm	1,070 μm	945 μm	861 μm	CCCCCCCCCCO [1-Decanol]	0.00851 mmHg	12 cP	12 cP	5	4.57	
					CCCCCCCCOCCCCCCCC [Dioctyl ether]	0.005 mmHg		0.224 cP		6.9	
					CCCCCCCCCCCCS [Dodecane thiol]	0.000015 mmHg				6.1	<0.2 µg/mL
					CCCCCCCC/C=C\CCCCCCCC(=O)O [Oleic acid]	0.0000005 mmHg		27.64 cP		7.64	0.01 µg/mL (≈ 0.0354 µM)
					CCCCCCCCCCCCCC [Tetradecane]	0.0369 mmHg		2.13 cP		8.19	0.00033 µg/mL (≈ 0.00166 µM)
					CC1=C(C/C=C(\C)CCC[C@H](C)CCC[C@H](C)CCCC(C)C)C(=O)c2ccccc2C1=O [Vitamin K1]					10.9	
